Earlier results on 7 compounds are cited in PubChem BioAssay AID1259410 (Chemical Carcinogenesis Research Information System (CCRIS), 2018).

For this series, the system named is rodent tumor promotion studies, tumor incidence. Nature of the series: CCRIS tumor promotion studies.

Consider `O=[As]O`, for which the outcome is “skin: 3.6 tumors/mouse uv alone; 7.0 tumors/mouse uv and arsenite” (Carcinogen: UV RADIATION 3X A WK FOR 6 MO STARTING 3 WKS AFTER ARSENITE, Doses [Promoter]: 5.0 MG/L STARTING AT 3 WKS OF AGE (STUDY DURATION: 28 WKS), Route [Carcinogen]: DERMAL, Route [Promoter]: DRINKING WATER, Species: MOUSE, Strain/Sex: CRL:SK1-HRBD (HAIRLESS)/FEMALE); “skin: squamous cell carcinoma” (Carcinogen: UV-B IRRADIATION (WESTINGHOUSE SOLAR FS-20 LAMP 85% IN 290-320 NM RANGE), Doses [Carcinogen]: 1.7 KJ/SQ M 3/WK FOR 182 D BEGINNING 3 WK POST PROMOTER FIRST DOSE, Doses [Promoter]: 0, 10 MG/L IN DRINKING WATER BEGINNING AT 21 D AFTER BIRTH (STUDY DURATION: 203 D), Route [Carcinogen]: DERMAL, Route [Promoter]: ORAL, Species: MOUSE, Strain/Sex: SKH/FEMALE).

As to `CCCCCCCCCCCC`, where the note is “Carcinogen: 7,12-DIMETHYLBENZ(A)ANTHRACENE, Doses [Carcinogen]: TOP, Route [Carcinogen]: DERMAL, Route [Promoter]: DERMAL, Species: MOUSE, Strain/Sex: FEMALE”, the outcome was “integumentary system (skin)”.

Turning to `O=P(O)(O)O`, the outcome (Carcinogen: N-BUTYL-N-(4-HYDROXYBUTYL)NITROSAMINE, 3817-11-6, Doses [Carcinogen]: 0.05% IN DRINKING WATER FOR 4 WK, Doses [Promoter]: 0, 1.4% IN DIET FOR 32 WK BEGINNING POST CARCINOGEN TREATMENT (STUDY DURATION: 36 WK), Route [Carcinogen]: ORAL, Route [Promoter]: ORAL, Species: RAT, Strain/Sex: F344/MALE) is on record as “urinary bladder: papilloma”; the outcome (Carcinogen: N-ETHYL-N-HYDROXYETHYLNITROSAMINE, 13147-25-6, Doses [Carcinogen]: 1000 PPM IN DIET FOR 2 WK, Doses [Promoter]: 0, 10% IN DIET OF UNILATERALLY NEPHRECTOMIZED RATS BEGINNING POST CARCINOGEN TREATMENT AND CONTINUING FOR 18 WK (STUDY D, Route [Carcinogen]: ORAL, Route [Promoter]: ORAL, Species: RAT, Strain/Sex: WISTAR/MALE) is reported as “kidney: renal cell tumor”; the outcome (Carcinogen: N-ETHYL-N-HYDROXYETHYLNITROSAMINE, 13147-25-6, Doses [Carcinogen]: 1000 PPM IN DIET FOR 2 WK, Doses [Promoter]: 0, 50000 PPM IN DIET FOR 18 WK ADMINISTERED TO UNILATERALLY NEPHRECTOMIZED RATS (STUDY DURATION: 20 WK), Route [Carcinogen]: ORAL, Route [Promoter]: ORAL, Species: RAT, Strain/Sex: WISTAR/MALE) was “kidney: renal cell tumor”.

Consider `O=C1c2ccccc2C(=O)c2c(O)cccc21`, for which the outcome is reported as “intestine: adenoma” (Carcinogen: METHYLAZOXYMETHANOL ACETATE, 592-62-1, Doses [Carcinogen]: 25 MG/KG BW 1/WK FOR 2 WK, Doses [Promoter]: 0, 1% IN DIET FOR 42 WK BEGINNING 1 WK POST CARCINOGEN TREATMENT (STUDY DURATION: 44 WK), Route [Carcinogen]: INTRAPERITONEAL, Route [Promoter]: ORAL, Species: RAT, Strain/Sex: ACI/FEMALE) and “intestine: adenoma, adenocarcinoma” (Carcinogen: METHYLAZOXYMETHANOL ACETATE, 592-62-1, Doses [Carcinogen]: 25 MG/KG BW 1/WK FOR 2 WK, Doses [Promoter]: 0, 1% IN DIET FOR 42 WK BEGINNING 1 WK POST CARCINOGEN TREATMENT (STUDY DURATION: 44 WK), Route [Carcinogen]: INTRAPERITONEAL, Route [Promoter]: ORAL, Species: RAT, Strain/Sex: ACI/MALE).

With `CC[C@@H](C)[C@H](NC(=O)CN)C(=O)N[C@H](C(=O)N[C@@H](CCC(=O)O)C(=O)N[C@@H](CCC(N)=O)C(=O)N[C@H]1CSSC[C@H]2NC(=O)[C@H]([C@H](C)CC)NC(=O)[C@H](CO)NC(=O)[C@H]([C@H](C)O)NC(=O)[C@H](CSSC[C@H](NC(=O)[C@H](CC(C)C)NC(=O)[C@H](Cc3c[nH]cn3)NC(=O)[C@H](CCC(N)=O)NC(=O)[C@@H](NC(=O)[C@@H](NC(=O)[C@@H](N)Cc3ccccc3)C(C)C)C(N)=O)C(=O)NCC(=O)N[C@@H](CO)C(=O)N[C@@H](Cc3c[nH]cn3)C(=O)N[C@@H](CC(C)C)C(=O)N[C@@H](C(C)C)C(=O)N[C@@H](CCC(=O)O)C(=O)N[C@@H](C)C(=O)N[C@@H](CC(C)C)C(=O)N[C@@H](Cc3ccc(O)cc3)C(=O)N[C@@H](CC(C)C)C(=O)N[C@@H](C(C)C)C(=O)N[C@H](C(=O)NCC(=O)N[C@@H](CCC(=O)O)C(=O)N[C@@H](CCCNC(=N)N)C(=O)NCC(=O)N[C@@H](Cc3ccccc3)C(=O)N[C@@H](Cc3ccccc3)C(=O)N[C@@H](Cc3ccc(O)cc3)C(=O)N[C@H](C(=O)N3CCC[C@H]3C(=O)N[C@@H](CCCCN)C(=O)N[C@H](C(=O)O)[C@H](C)O)[C@H](C)O)CSSC[C@@H](C(=O)N[C@@H](CC(N)=O)C(=O)O)NC(=O)[C@H](Cc3ccc(O)cc3)NC(=O)[C@H](CC(N)=O)NC(=O)[C@H](CCC(=O)O)NC(=O)[C@H](CC(C)C)NC(=O)[C@H](CCC(N)=O)NC(=O)[C@H](Cc3ccc(O)cc3)NC(=O)[C@H](CC(C)C)NC(=O)[C@H](CO)NC2=O)NC1=O)C(C)C`, the outcome (Carcinogen: 7,12-DIMETHYLBENZ[A]ANTHRACENE, 57-97-6, Doses [Carcinogen]: 20 MG IN 4 ML OLIVE OIL ONCE, Doses [Promoter]: 0, 10 I.U./D BEGINNING 4 WK POST CARCINOGEN DOSE AND CONTINUING FOR DURATION OF STUDY (STUDY DURATION: 6 MO), Route [Carcinogen]: GAVAGE, Route [Promoter]: SUBCUTANEOUS, Species: RAT, Strain/Sex: SWISS/FEMALE) is listed as “mammary gland: tumor”.

For `O=C1[C@H]2CC=CC[C@H]2C(=O)N1SC(Cl)(Cl)Cl`, the outcome (Carcinogen: DIETHYLNITROSAMINE, 55-18-5, N-METHYL-N-NITROSOUREA, 684-93-5, N-BIS(2-HYDROXYPROPYL)NITROSAMINE, 53609-64-6, Carcinogen: DIETHYLNITROSAMINE, 55-18-5, N-METHYL-N-NITROSOUREA, 684-93-5, N-BIS(2-HYDROXYPROPYL)NITROSAMINE, 53609-64-6, Doses [Carcinogen]: 100 MG/KG DEN ONCE THEN 20 MG/KG MNU 2/WK FOR 2 WK FOLLOWED BY 0.1% DHPN IN DRINKING WATER FOR 2 WK, Doses [Promoter]: 0, 4000 PPM IN DIET BEGINNING POST CARCINOGEN TREATMENT AND CONTINUING FOR 16 WK (STUDY DURATION: 20 WK), Route [Carcinogen]: INTRAPERITONEAL, INTRAPERITONEAL, ORAL, Route [Carcinogen]: INTRAPERITONEAL, INTRAPERITONEAL, ORAL, Route [Promoter]: ORAL, Species: RAT, Strain/Sex: F344/MALE) is recorded as “kidney: adenoma”.

On to `COc1cccc(O)c1O`, for which the outcome (Carcinogen: DIETHYLNITROSAMINE, 55-18-5, N-METHYL-N-NITROSOUREA, 684-93-5, 1,2-DIMETHYLHYDRAZINE, 540-73-8, N-BUTYL-N-(4-HYDRO, Carcinogen: DIETHYLNITROSAMINE, 55-18-5, N-METHYL-N-NITROSOUREA, 684-93-5, 1,2-DIMETHYLHYDRAZINE, 540-73-8, N-BUTYL-N-(4-HYDRO, Doses [Carcinogen]: 100 MG/KG BW DEN ONCE THEN 20 MG/KG BW MNU 1/D FOR 4 D FOLLOWED BY 40 MG/KG BW DMH 1/D FOR 4 D, 0.05% BHBN IN DRINKING W, Doses [Promoter]: 0, 2% IN DIET FOR 24 WK BEGINNING 3 D POST CARCINOGEN TREATMENT (STUDY DURATION: 28 WK), Route [Carcinogen]: INTRAPERITONEAL, INTRAPERITONEAL, SUBCUTANEOUS, ORAL, Route [Carcinogen]: INTRAPERITONEAL, INTRAPERITONEAL, SUBCUTANEOUS, ORAL, Route [Promoter]: ORAL, Species: RAT, Strain/Sex: F344/MALE) was “forestomach: papilloma, squamous cell carcinoma or carcinoma in situ; glandular”.
